According to ChEMBL document CHEMBL2163343, “Sesquiterpene lactones from Tithonia diversifolia act as peroxisome proliferator-activated receptor agonists” (Bioorg Med Chem Lett, 2012):
pIC50: −log10 of the molar value.

Experiments:
[1] = molecular target: T1, Peroxisome proliferator-activated receptor alpha (Homo sapiens) (UniProt Q07869); test: Transactivation of PPARalpha expressed in human HepG2 cells assessed as Sult2a1 expression at 10 uM by luciferase reporter gene assay relative to vehicle-treated control; format: cell-based
T1 sequence (whole entry): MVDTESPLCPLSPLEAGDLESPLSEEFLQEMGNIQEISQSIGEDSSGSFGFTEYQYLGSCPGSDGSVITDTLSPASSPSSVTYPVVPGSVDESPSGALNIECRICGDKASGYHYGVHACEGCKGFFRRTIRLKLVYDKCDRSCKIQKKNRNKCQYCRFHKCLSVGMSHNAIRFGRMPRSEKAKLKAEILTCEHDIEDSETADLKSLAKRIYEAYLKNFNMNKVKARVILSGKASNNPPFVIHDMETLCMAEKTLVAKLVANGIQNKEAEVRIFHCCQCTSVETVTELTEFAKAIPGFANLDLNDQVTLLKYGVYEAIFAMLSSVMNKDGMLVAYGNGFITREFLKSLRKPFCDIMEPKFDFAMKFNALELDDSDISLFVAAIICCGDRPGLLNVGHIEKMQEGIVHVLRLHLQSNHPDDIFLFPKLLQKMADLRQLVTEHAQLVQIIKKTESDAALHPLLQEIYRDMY

[2] = molecular target: T2, Peroxisome proliferator-activated receptor gamma (Homo sapiens) (UniProt P37231); test: Agonist activity at human PPARgamma expressed in human HEK293 cells assessed as SHP promoter transactivation at 10 uM by luciferase reporter gene assay relative to vehicle-treated control; format: functional, cell-based
T2 sequence (whole entry): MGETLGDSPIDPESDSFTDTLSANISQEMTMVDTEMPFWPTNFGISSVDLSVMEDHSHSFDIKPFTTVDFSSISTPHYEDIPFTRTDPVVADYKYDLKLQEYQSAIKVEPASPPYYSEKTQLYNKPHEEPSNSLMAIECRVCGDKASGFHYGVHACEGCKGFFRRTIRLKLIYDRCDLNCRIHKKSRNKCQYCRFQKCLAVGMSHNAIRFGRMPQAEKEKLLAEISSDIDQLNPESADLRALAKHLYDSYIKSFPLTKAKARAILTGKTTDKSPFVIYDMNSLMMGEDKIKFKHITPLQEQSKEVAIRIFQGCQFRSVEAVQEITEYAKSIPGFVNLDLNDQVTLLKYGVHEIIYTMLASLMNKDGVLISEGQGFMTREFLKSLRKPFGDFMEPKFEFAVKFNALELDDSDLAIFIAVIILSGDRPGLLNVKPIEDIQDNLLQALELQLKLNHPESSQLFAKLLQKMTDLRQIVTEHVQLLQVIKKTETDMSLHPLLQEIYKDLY

[3] = molecular target: T2, Peroxisome proliferator-activated receptor gamma (Homo sapiens); test: Agonist activity at human PPARgamma expressed in human HEK293 cells assessed as SHP promoter transactivation by luciferase reporter gene assay relative to vehicle-treated control; format: functional, cell-based
[4] = molecular target: T1, Peroxisome proliferator-activated receptor alpha (Homo sapiens); test: Transactivation of PPARalpha expressed in human HepG2 cells assessed as Sult2a1 expression at 100 nM by luciferase reporter gene assay relative to vehicle-treated control; format: cell-based
[5] = molecular target: T3, Peroxisome proliferator-activated receptor gamma (Homo sapiens, UniProt P37231); test: Inhibition of fluormone binding to human PPARgamma LBD after 2 hrs by competitive fluorescence polarization assay
T3 sequence (P37231 whole entry): T2 sequence (whole entry)

[6] = molecular target: T2, Peroxisome proliferator-activated receptor gamma (Homo sapiens); test: Agonist activity at human PPARgamma expressed in human HEK293 cells assessed as ABCA1 promoter transactivation at 1 uM by luciferase reporter gene assay relative to vehicle-treated control; format: functional, cell-based
[7] = molecular target: T2, Peroxisome proliferator-activated receptor gamma (Homo sapiens); test: Agonist activity at human PPARgamma expressed in human HEK293 cells assessed as SHP promoter transactivation at 1 uM by luciferase reporter gene assay relative to vehicle-treated control; format: functional, cell-based
[8] = molecular target: T2, Peroxisome proliferator-activated receptor gamma (Homo sapiens); test: Agonist activity at human PPARgamma expressed in human HEK293 cells assessed as ABCA1 promoter transactivation by luciferase reporter gene assay relative to vehicle-treated control; format: functional, cell-based
[9] = molecular target: T2, Peroxisome proliferator-activated receptor gamma (Homo sapiens); test: Agonist activity at human PPARgamma expressed in human HEK293 cells assessed as ABCA1 promoter transactivation at 10 uM by luciferase reporter gene assay relative to vehicle-treated control; format: functional, cell-based
[10] = molecular target: T2, Peroxisome proliferator-activated receptor gamma (Homo sapiens); test: Agonist activity at human PPARgamma expressed in human HEK293 cells at 10 uM by luciferase reporter gene assay relative to vehicle-treated control; format: functional, cell-based
[11] = molecular target: T2, Peroxisome proliferator-activated receptor gamma (Homo sapiens); conditions: HEK293
Description: Agonist activity at human PPARgamma expressed in human HEK293 cells assessed as ABCA1 promoter transactivation at 100 nM by luciferase reporter gene assay relative to vehicle-treated control

Row | Compound | RLU [1] | RLU [2] | Activity [3] | RLU [4] | pIC50 [5] | RLU [6] | RLU [7] | Activity [8] | RLU [9] | RLU [10] | RLU [11]
1 | CCOC(=O)C(C)(C)Oc1ccc(Cl)cc1 | 2.44 |  |  |  |  |  |  |  |  |  | 
2 | C=C1C(=O)O[C@@H]2C[C@H](C)[C@@]3(O)C[C@H](O)[C@@](C)(C[C@@H](OC(=O)C(C)C)[C@@H]12)O3 [TAGITININ A] | 2.47 | 3.5 | Dose-dependent effect | 1.4 | 4.26 | 2.1 | 2.8 | Dose-dependent effect | 2.9 | 1.5 | 
3 | C=C1C(=O)O[C@@H]2C[C@H](C)[C@@]3(O)CC[C@@](C)(C[C@@H](OC(=O)C(C)C)[C@@H]12)O3 [TIROTUNDIN] | 2.33 | 3.4 | Dose-dependent effect | 1.4 | 4.57 | 2.1 |  | Dose-dependent effect | 3.1 | 2 | 1.6
